ChEMBL document CHEMBL2331252, “Facile one-pot synthesis of novel dispirooxindole-pyrrolidine derivatives and their antimicrobial and anticancer activity against A549 human lung adenocarcinoma cancer cell line” (Bioorg Med Chem Lett, 2013)
In brackets after ≈: the same amount, converted by molar mass. Activity calls are given as the source filed them. No cut-off for these calls is given here.

Tests used:
Assay type in all cases: functional
[1] = system: A549; assay: Cytotoxicity against human A549 cells assessed as cell death at 50 ug/ml by MTT assay
[2] = system: A549; assay: Cytotoxicity against human A549 cells assessed as cell death at 200 ug/ml by MTT assay
[3] = system: A549; assay: Cytotoxicity against human A549 cells assessed as cell death at 100 ug/ml by MTT assay
[4] = system: Candida albicans; assay: Antifungal activity against Candida albicans MTCC 227 after 48 to 72 hrs
[5] = system: Staphylococcus aureus; assay: Antibacterial activity against methicillin-resistant Staphylococcus aureus after 24 hrs
[6] = system: Staphylococcus aureus; assay: Antibacterial activity against Staphylococcus aureus MTCC 96 after 24 hrs; details: MTCC 96, 24 h
[7] = system: Klebsiella aerogenes; assay: Antibacterial activity against Enterobacter aerogenes MTCC 111 after 24 hrs
[8] = system: Micrococcus luteus; assay: Antibacterial activity against Micrococcus luteus MTCC 106 after 24 hrs; details: MTCC 106, 24 h
[9] = system: Shigella flexneri; assay: Antibacterial activity against Shigella flexneri MTCC 1457 after 24 hrs; details: MTCC 1457, 24 h
[10] = system: Proteus vulgaris; assay: Antibacterial activity against Proteus vulgaris MTCC 1771 after 24 hrs
[11] = system: Klebsiella pneumoniae; assay: Antibacterial activity against Klebsiella pneumoniae MTCC 109 after 24 hrs; details: MTCC 109, 24 h
[12] = system: Salmonella typhimurium; assay: Antibacterial activity against Salmonella typhimurium MTCC 1251 after 24 hrs
[13] = Antifungal activity against Malassezia pachydermatis at 1 mg/disc after 48 hrs by disc diffusion method
[14] = system: Candida albicans; assay: Antifungal activity against Candida albicans MTCC 227 at 1 mg/disc after 48 hrs by disc diffusion method
[15] = system: Staphylococcus aureus; assay: Antibacterial activity against methicillin-resistant Staphylococcus aureus at 1 mg/disc after 24 hrs by disc diffusion method
[16] = system: Staphylococcus aureus; assay: Antibacterial activity against Staphylococcus aureus MTCC 96 at 1 mg/disc after 24 hrs by disc diffusion method
[17] = system: Klebsiella aerogenes; assay: Antibacterial activity against Enterobacter aerogenes MTCC 111 at 1 mg/disc after 24 hrs by disc diffusion method
[18] = system: Micrococcus luteus; assay: Antibacterial activity against Micrococcus luteus MTCC 106 at 1 mg/disc after 24 hrs by disc diffusion method
[19] = system: Shigella flexneri; assay: Antibacterial activity against Shigella flexneri MTCC 1457 at 1 mg/disc after 24 hrs by disc diffusion method
[20] = system: Proteus vulgaris; assay: Antibacterial activity against Proteus vulgaris MTCC 1771 at 1 mg/disc after 24 hrs by disc diffusion method
[21] = system: Klebsiella pneumoniae; assay: Antibacterial activity against Klebsiella pneumoniae MTCC 109 at 1 mg/disc after 24 hrs by disc diffusion method
[22] = system: Salmonella typhimurium; assay: Antibacterial activity against Salmonella typhimurium MTCC 1251 at 1 mg/disc after 24 hrs by disc diffusion method; details: for inhibition: Salmonella enterica subsp. enterica serovar Typhimurium
[23] = Salmonella enterica subsp. enterica serovar Typhimurium
[24] = Salmonella enterica, MTCC 1251, 24 h

| Compound | Activity [1] | Activity [2] | Activity [3] | MIC [4] | MIC [5] | MIC [6] | MIC ([7]; MTCC 111, 24 h) | MIC [8] | MIC [9] | MIC ([10]; MTCC 1771, 24 h) | MIC [11] | inhibition [13] | inhibition zone (IZ) [14] | inhibition zone (IZ) [15] | inhibition zone (IZ) [16] | inhibition zone (IZ) [17] | inhibition zone (IZ) [18] | inhibition zone (IZ) [19] | inhibition zone (IZ) [20] | inhibition zone (IZ) [21] | also measured |
| --- | --- | --- | --- | --- | --- | --- | --- | --- | --- | --- | --- | --- | --- | --- | --- | --- | --- | --- | --- | --- | --- |
| CN1C[C@](C#N)(C(=O)c2c[nH]c3ccccc23)[C@]2(C(=O)Nc3ccccc32)[C@@]12C(=O)Nc1ccccc12 | 17.46% | 33.5% | 20.91% | 500 µg/mL (≈ 1030 µM) | 500 µg/mL (≈ 1030 µM) | 500 µg/mL (≈ 1030 µM) | 500 µg/mL (≈ 1030 µM) | 500 µg/mL (≈ 1030 µM) | 500 µg/mL (≈ 1030 µM) | 500 µg/mL (≈ 1030 µM) | 125 µg/mL (≈ 256 µM) | inactive | 9 mm | 10 mm | 8 mm | 9 mm | 9 mm | 8 mm | 8 mm | 12 mm | MIC [12, 23]: inactive; inhibition [22]: inactive |
| CN1C[C@](C#N)(C(=O)c2c[nH]c3ccccc23)[C@]2(C(=O)Nc3ccccc32)[C@@]12C(=O)Nc1ccc(Cl)cc12 | 3.58% | 13.15% | 7.38% | 500 µg/mL (≈ 958 µM) | 500 µg/mL (≈ 958 µM) | 500 µg/mL (≈ 958 µM) | – | 1000 µg/mL (≈ 1920 µM) | 1000 µg/mL (≈ 1920 µM) | 250 µg/mL (≈ 479 µM) | 125 µg/mL (≈ 239 µM) | inactive | 9 mm | 8 mm | 9 mm | – | 10 mm | 11 mm | 13 mm | 14 mm | MIC [7]: inactive; MIC [12, 24]: 500 µg/mL (≈ 958 µM); inhibition [17]: inactive; inhibition zone (IZ) [22]: 8 mm |
| CCCCN1C(=O)[C@@]2(c3ccccc31)N(C)C[C@](C#N)(C(=O)c1c[nH]c3ccccc13)[C@]21C(=O)Nc2ccccc21 | 4.27% | 32.25% | 19.6% | 500 µg/mL (≈ 920 µM) | 500 µg/mL (≈ 920 µM) | 500 µg/mL (≈ 920 µM) | 500 µg/mL (≈ 920 µM) | 500 µg/mL (≈ 920 µM) | 500 µg/mL (≈ 920 µM) | – | 500 µg/mL (≈ 920 µM) | inactive | 8 mm | 11 mm | 9 mm | 10 mm | 8 mm | 9 mm | – | 8 mm | MIC [10]: inactive; MIC [12, 24]: 500 µg/mL (≈ 920 µM); inhibition [20]: inactive; inhibition zone (IZ) [22]: 10 mm |
| CN1C[C@](C#N)(C(=O)c2c[nH]c3ccccc23)[C@]2(C(=O)Nc3ccccc32)C12C(=O)c1cccc3cccc2c13 (stereo partly specified) | 7.55% | 29.72% | 21.61% | 500 µg/mL (≈ 957 µM) | inactive | 125 µg/mL (≈ 239 µM) | 500 µg/mL (≈ 957 µM) | 500 µg/mL (≈ 957 µM) | 500 µg/mL (≈ 957 µM) | 500 µg/mL (≈ 957 µM) | 500 µg/mL (≈ 957 µM) | inactive | 9 mm | – | 11 mm | 10 mm | 9 mm | 9 mm | 8 mm | 8 mm | MIC [12, 23]: inactive; inhibition [15]: inactive; inhibition [22]: inactive |
| CN1C[C@](C#N)(C(=O)c2c[nH]c3ccccc23)[C@]2(C(=O)Nc3ccccc32)[C@@]12C(=O)Nc1ccc(I)cc12 | 4.19% | 17.58% | 9.66% | 500 µg/mL (≈ 815 µM) | 1000 µg/mL (≈ 1630 µM) | 500 µg/mL (≈ 815 µM) | – | 1000 µg/mL (≈ 1630 µM) | 1000 µg/mL (≈ 1630 µM) | 500 µg/mL (≈ 815 µM) | 250 µg/mL (≈ 408 µM) | inactive | 10 mm | 8 mm | 10 mm | 9 mm | 8 mm | 8 mm | 9 mm | 13 mm | MIC [7]: inactive; MIC [12, 24]: 500 µg/mL (≈ 815 µM); inhibition zone (IZ) [22]: 11 mm |
| CN1C[C@](C#N)(C(=O)c2c[nH]c3ccccc23)[C@]2(C(=O)Nc3ccccc32)[C@@]12C(=O)Nc1ccc(F)cc12 | 3.6% | 16.79% | 10.82% | 125 µg/mL (≈ 247 µM) | 500 µg/mL (≈ 989 µM) | 125 µg/mL (≈ 247 µM) | 500 µg/mL (≈ 989 µM) | 500 µg/mL (≈ 989 µM) | 500 µg/mL (≈ 989 µM) | – | 500 µg/mL (≈ 989 µM) | inactive | 11 mm | 10 mm | 12 mm | 9 mm | 9 mm | 9 mm | – | 8 mm | MIC [10]: inactive; MIC [12, 23]: inactive; inhibition [20]: inactive; inhibition [22]: inactive |
| CN1C(=O)[C@@]2(c3cc(Cl)ccc31)N(C)C[C@](C#N)(C(=O)c1c[nH]c3ccccc13)[C@]21C(=O)Nc2ccccc21 | 3.76% | 22.21% | 12.98% | inactive | 500 µg/mL (≈ 933 µM) | 500 µg/mL (≈ 933 µM) | 125 µg/mL (≈ 233 µM) | 125 µg/mL (≈ 233 µM) | 500 µg/mL (≈ 933 µM) | 125 µg/mL (≈ 233 µM) | 125 µg/mL (≈ 233 µM) | inactive | – | 10 mm | 9 mm | 11 mm | 12 mm | 9 mm | 11 mm | 10 mm | MIC [12, 24]: 500 µg/mL (≈ 933 µM); inhibition [14]: inactive; inhibition zone (IZ) [22]: 9 mm |
| CN1C(=O)[C@@]2(c3cc(F)ccc31)N(C)C[C@](C#N)(C(=O)c1c[nH]c3ccccc13)[C@]21C(=O)Nc2ccccc21 | 1.41% | 25.51% | 12.22% | 500 µg/mL (≈ 962 µM) | 500 µg/mL (≈ 962 µM) | 500 µg/mL (≈ 962 µM) | 125 µg/mL (≈ 241 µM) | 500 µg/mL (≈ 962 µM) | 500 µg/mL (≈ 962 µM) | 500 µg/mL (≈ 962 µM) | 500 µg/mL (≈ 962 µM) | inactive | 9 mm | 9 mm | 10 mm | 11 mm | 10 mm | 9 mm | 8 mm | 9 mm | MIC [12, 24]: 500 µg/mL (≈ 962 µM); inhibition zone (IZ) [22]: 8 mm |
